In patent publication US12318373B2, “Methods of treating gastrointestinal stromal tumors” (Deciphera Pharmaceuticals, LLC, priority 2019, dated 2025):

Assays:
[1] = Example 7: coadministration with strong CYP3A inhibitor (itraconazole), exposure; assay type: in vivo; settings: coadministration of ripretinib with itraconazole
[2] = Example 8: coadministration with proton-pump inhibitor (pantoprazole), exposure; assay type: in vivo; settings: ripretinib coadministered with pantoprazole
Protocol: The effect of a proton-pump inhibitor on the exposure of ripretinib was evaluated.

[3] = Example 9: food effect (high-fat meal) on exposure; assay type: in vivo; settings: 150 mg dose with a high-fat meal
Protocol: The effect of a high-fat breakfast on ripretinib and Compound A exposure was evaluated. A high fat meal consisted of approximately 150, 250, and 500-600 calories from protein, carbohydrate, and fat, respectively. […] Therefore, ripretinib may be taken with or without food at approximately same time each day.

[4] = tested on: GIST with KIT exon 11 primary mutations; settings: cited from earlier work

Row | Increase in AUC0-inf [1] [%] | Increase in Cmax [1] | Difference in plasma exposure [2] | AUC0-24h higher by [3] [%] | Cmax higher by [3] [%] | Structure (SMILES) | 2-year relapse-free survival ([4]; adjuvant setting) [%] | Median event-free survival ([4]; metastatic setting)
1 | 99 | no change | No clinically significant differences | 47 | 66 | CCn1c(=O)c(-c2cc(NC(=O)Nc3ccccc3)c(F)cc2Br)cc2cnc(N)cc21 [Compound A] | – | –
2 | – | – | – | – | – | Cc1ccc(NC(=O)c2ccc(CN3CCN(C)CC3)cc2)cc1Nc1nccc(-c2cccnc2)n1 [imatinib] | ~90 | under 2 years
